≈ marks a conversion by molar mass, not a printed value.
Columns and labels:
Type in all cases: functional
Escherichia coli = test: Antibacterial activity against Escherichia coli ATCC 25922
Staphylococcus aureus = test: Antibacterial activity against methicillin-resistant Staphylococcus aureus ATCC 33591
Enterococcus faecalis = test: Antibacterial activity against vancomycin-resistant Enterococcus faecalis ATCC 51299

| SMILES | MBC (Escherichia coli) | MIC (Escherichia coli) | MBC (Staphylococcus aureus) | MIC (Staphylococcus aureus) | MBC (Enterococcus faecalis) | MIC (Enterococcus faecalis) |
| --- | --- | --- | --- | --- | --- | --- |
| N=C1N(CCc2cc(C(F)(F)F)cc(C(F)(F)F)c2)[C@H](CC2CCCCC2)CN1[C@H](Cc1ccc2ccccc2c1)CN1CCCC1CN1C(N)=NC[C@@H]1Cc1ccccc1 (some centres not stated) | > 10 µg/mL | > 10 µg/mL | 2.5 µg/mL (≈ 2.96 µM) | < 2.5 µg/mL | > 10 µg/mL | < 2.5 µg/mL |
| CCCC[C@@H]1CN([C@@H](CC2CCCCC2)CN2CCCC2CN2C(N)=NC[C@@H]2C)C(=N)N1CC(C)c1ccc(CC(C)C)cc1 (some centres not stated) | > 10 µg/mL | > 10 µg/mL | 2.5 µg/mL (≈ 4.03 µM) | 2.5 µg/mL (≈ 4.03 µM) | > 10 µg/mL | < 2.5 µg/mL |
